The record followed here is patent US20230150970A1, “AMINOPYRIMIDINE DERIVATIVES AND THEIR USE AS ARYL HYDROCARBON RECEPTOR MODULATORS” (DONG-A ST CO., LTD., priority 2020, published 2023).

For the test, the target named is T1, AhR (Homo sapiens, UniProt P35869).
T1 sequence (P35869 11-848): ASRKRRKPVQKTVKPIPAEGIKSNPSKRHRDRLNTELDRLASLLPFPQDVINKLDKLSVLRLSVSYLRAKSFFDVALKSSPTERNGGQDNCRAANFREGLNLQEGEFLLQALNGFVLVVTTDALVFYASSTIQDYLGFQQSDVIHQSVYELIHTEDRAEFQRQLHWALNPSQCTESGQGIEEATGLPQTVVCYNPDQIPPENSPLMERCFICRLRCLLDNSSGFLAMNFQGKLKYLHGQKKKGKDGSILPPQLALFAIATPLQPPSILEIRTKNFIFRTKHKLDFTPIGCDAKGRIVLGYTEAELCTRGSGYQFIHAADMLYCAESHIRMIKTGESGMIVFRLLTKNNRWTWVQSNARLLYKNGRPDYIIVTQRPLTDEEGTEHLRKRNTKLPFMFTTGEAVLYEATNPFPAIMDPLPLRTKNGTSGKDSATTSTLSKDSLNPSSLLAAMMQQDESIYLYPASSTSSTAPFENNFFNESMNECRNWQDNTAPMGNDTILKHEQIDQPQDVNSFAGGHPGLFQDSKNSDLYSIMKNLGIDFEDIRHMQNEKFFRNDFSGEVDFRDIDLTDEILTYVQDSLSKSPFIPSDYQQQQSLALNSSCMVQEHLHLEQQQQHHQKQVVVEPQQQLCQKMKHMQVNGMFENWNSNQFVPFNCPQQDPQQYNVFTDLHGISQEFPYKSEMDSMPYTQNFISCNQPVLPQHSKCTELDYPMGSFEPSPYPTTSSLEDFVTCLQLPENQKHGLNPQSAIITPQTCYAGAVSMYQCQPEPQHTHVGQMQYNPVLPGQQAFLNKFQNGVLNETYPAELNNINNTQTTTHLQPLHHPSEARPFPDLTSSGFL
Nature of the test: In Vitro Assay 1: XRE-luciferase reporter assay, antagonism in human cell line (HepG2). The note with it: Assay 1: AhR-Luc Human Antagonism (IC50, nM), values marked *: kynurenine 50 μM, 6 hours. Background: Reporter assays use an easily measured gene product as a stand-in for the process of interest.

With `Clc1ccc(-c2cc(NCc3ccncc3)nc(-c3cccnc3)n2)cc1` [Example 33, 6-(4-chlorophenyl)-2-(pyridin-3-yl)-N-(pyridin-4-ylmethyl)pyrimidin-4-amine], the 50% inhibitory concentration (IC50) (commonly the concentration needed to halve the response being measured) is 100 to 1000 nM.

On to `O[C@H]1CC[C@H](Nc2cc(-c3ccc(Cl)cc3)nc(-c3cccnc3)n2)CC1` [Example 34, trans-4-((6-(4-chlorophenyl)-2-(pyridin-3-yl)pyrimidin-4-yl)amino)cyclohexan-1-ol], for which the half-inhibitory concentration (IC50) lay in the range of 10 to 100 nM.

In turn, `OCC1CCCCN1c1cc(-c2ccc(Cl)cc2)nc(-c2cccnc2)n1` (stereo not drawn) [Example 36, (1-(6-(4-chlorophenyl)-2-(pyridin-3-yl)pyrimidin-4-yl)piperidin-2-yl)methanol] showed a 50% inhibitory concentration (IC50) of 10 to 100 nM.

`OCCC1CCCCN1c1cc(-c2ccc(Cl)cc2)nc(-c2cccnc2)n1` (stereo not drawn) [Example 37, 2-(1-(6-(4-chlorophenyl)-2-(pyridin-3-yl)pyrimidin-4-yl)piperidin-2-yl)ethan-1-ol] yielded an IC50 of more than 1000 nM.

`O[C@@H]1CCCN(c2cc(-c3ccc(Cl)cc3)nc(-c3cccnc3)n2)C1` [Example 38, (R)-1-(6-(4-chlorophenyl)-2-(pyridin-3-yl)pyrimidin-4-yl)piperidin-3-ol] registered an IC50 of less than 10 nM.

For the compound `OC1CCCN(c2cc(-c3ccc(Cl)cc3)nc(-c3cccnc3)n2)C1` (stereo not drawn) [Example 39, 1-(6-(4-chlorophenyl)-2-(pyridin-3-yl)pyrimidin-4-yl)piperidin-3-ol], the 50% inhibitory concentration (IC50) lay within 10 to 100 nM.

`OCC1CCCN(c2cc(-c3ccc(Cl)cc3)nc(-c3cccnc3)n2)C1` (stereo not drawn) [Example 40, (1-(6-(4-chlorophenyl)-2-(pyridin-3-yl)pyrimidin-4-yl)piperidin-3-yl)methanol] showed an IC50 of 10 to 100 nM.

In turn, `OC1CCN(c2cc(-c3ccc(Cl)cc3)nc(-c3cccnc3)n2)CC1` [Example 41, 1-(6-(4-chlorophenyl)-2-(pyridin-3-yl)pyrimidin-4-yl)piperidin-4-ol] gave a 50% inhibitory concentration (IC50) of less than 10 nM.

In turn, `OCCCC1CCN(c2cc(-c3ccc(Cl)cc3)nc(-c3cccnc3)n2)CC1` [Example 44, 3-(1-(6-(4-chlorophenyl)-2-(pyridin-3-yl)pyrimidin-4-yl)piperidin-4-yl)propan-1-ol] gave an IC50 of less than 10 nM.

`COC1CCN(c2cc(-c3ccc(Cl)cc3)nc(-c3cccnc3)n2)CC1` [Example 45, 4-(4-chlorophenyl)-6-(4-methoxypiperidin-1-yl)-2-(pyridin-3-yl)pyrimidine] registered a 50% inhibitory concentration (IC50) of 10 to 100 nM.

Compound `Clc1ccc(-c2cc(N3CCCCC3)nc(-c3cccnc3)n2)cc1` [Example 46, 4-(4-chlorophenyl)-6-(piperidin-1-yl)-2-(pyridin-3-yl)pyrimidine] showed an IC50 of 100 to 1000 nM.

With `CC1CCCCN1c1cc(-c2ccc(Cl)cc2)nc(-c2cccnc2)n1` (stereo not drawn) [Example 47, 4-(4-chlorophenyl)-6-(2-methylpiperidin-1-yl)-2-(pyridin-3-yl)pyrimidine], the 50% inhibitory concentration (IC50) was more than 1000 nM.

Regarding `CC1CCCN(c2cc(-c3ccc(Cl)cc3)nc(-c3cccnc3)n2)C1` (stereo not drawn) [Example 48, 4-(4-chlorophenyl)-6-(3-methylpiperidin-1-yl)-2-(pyridin-3-yl)pyrimidine], the IC50 was more than 1000 nM.

`CC1CCCC(C)N1c1cc(-c2ccc(Cl)cc2)nc(-c2cccnc2)n1` (stereo not drawn) [Example 49, 4-(4-chlorophenyl)-6-(2,6-dimethylpiperidin-1-yl)-2-(pyridin-3-yl)pyrimidine] had a concentration for half-maximal inhibition (IC50) of more than 1000 nM.

`CC1CC(C)CN(c2cc(-c3ccc(Cl)cc3)nc(-c3cccnc3)n2)C1` (stereo not drawn) [Example 50, 4-(4-chlorophenyl)-6-(3,5-dimethylpiperidin-1-yl)-2-(pyridin-3-yl)pyrimidine] came in with a concentration for half-maximal inhibition (IC50) of more than 1000 nM.

In turn, `FC1(F)CCCN(c2cc(-c3ccc(Cl)cc3)nc(-c3cccnc3)n2)C1` [Example 51, 4-(4-chlorophenyl)-6-(3,3-difluoropiperidin-1-yl)-2-(pyridin-3-yl)pyrimidine] displayed an IC50 of 100 to 1000 nM.

Consider `FC(F)(F)C1CCCN(c2cc(-c3ccc(Cl)cc3)nc(-c3cccnc3)n2)C1` (stereo not drawn) [Example 52, 4-(4-chlorophenyl)-2-(pyridin-3-yl)-6-(3-(trifluoromethyl)piperidin-1-yl)pyrimidine], for which the concentration for half-maximal inhibition (IC50) was in the range of 100 to 1000 nM.

As to `CCC1CCCN(c2cc(-c3ccc(Cl)cc3)nc(-c3cccnc3)n2)C1` (stereo not drawn) [Example 53, 4-(4-chlorophenyl)-6-(3-ethylpiperidin-1-yl)-2-(pyridin-3-yl)pyrimidine], the IC50 is more than 1000 nM.

In turn, `Clc1ccc(-c2cc(NC3CCNCC3)nc(-c3cccnc3)n2)cc1` [Example 54, 6-(4-chlorophenyl)-N-(piperidin-4-yl)-2-(pyridin-3-yl)pyrimidin-4-amine] returned an IC50 of more than 1000 nM.

`Clc1ccc(-c2cc(NCC3CCCNC3)nc(-c3cccnc3)n2)cc1` (stereo not drawn) [Example 55, 6-(4-chlorophenyl)-N-(piperidin-3-ylmethyl)-2-(pyridin-3-yl)pyrimidin-4-amine]: the IC50 was more than 1000 nM.

Take `Clc1ccc(-c2cc(NCC3CCNCC3)nc(-c3cccnc3)n2)cc1` [Example 56, 6-(4-chlorophenyl)-N-(piperidin-4-ylmethyl)-2-(pyridin-3-yl)pyrimidin-4-amine]: the IC50 was 100 to 1000 nM.

`CN1CCC(Nc2cc(-c3ccc(Cl)cc3)nc(-c3cccnc3)n2)CC1` [Example 57, 6-(4-chlorophenyl)-N-(1-methylpiperidin-4-yl)-2-(pyridin-3-yl)pyrimidin-4-amine] displayed an IC50 of more than 1000 nM.

With `Clc1ccc(-c2cc(NCCC3CCNCC3)nc(-c3cccnc3)n2)cc1` [Example 58, 6-(4-chlorophenyl)-N-(2-(piperidin-4-yl)ethyl)-2-(pyridin-3-yl)pyrimidin-4-amine], the half-inhibitory concentration (IC50) is more than 1000 nM.

Compound `NCC1CCCCN1c1cc(-c2ccc(Cl)cc2)nc(-c2cccnc2)n1` (stereo not drawn) [Example 59, (1-(6-(4-chlorophenyl)-2-(pyridin-3-yl)pyrimidin-4-yl)piperidin-2-yl)methanamine] gave a half-maximal inhibitory concentration (IC50) of more than 1000 nM.

As to `N[C@@H]1CCCN(c2cc(-c3ccc(Cl)cc3)nc(-c3cccnc3)n2)C1` [Example 60, (R)-1-(6-(4-chlorophenyl)-2-(pyridin-3-yl)pyrimidin-4-yl)piperidin-3-amine], the IC50 was more than 1000 nM.

In the case of `N[C@H]1CCCN(c2cc(-c3ccc(Cl)cc3)nc(-c3cccnc3)n2)C1` [Example 61, (S)-1-(6-(4-chlorophenyl)-2-(pyridin-3-yl)pyrimidin-4-yl)piperidin-3-amine], the IC50 is more than 1000 nM.

`NCC1CCCN(c2cc(-c3ccc(Cl)cc3)nc(-c3cccnc3)n2)C1` (stereo not drawn) [Example 62, (1-(6-(4-chlorophenyl)-2-(pyridin-3-yl)pyrimidin-4-yl)piperidin-3-yl)methanamine] gave an IC50 of more than 1000 nM.

Compound `NC[C@@H]1CCCN(c2cc(-c3ccc(Cl)cc3)nc(-c3cccnc3)n2)C1` [Example 63, (S)-(1-(6-(4-chlorophenyl)-2-(pyridin-3-yl)pyrimidin-4-yl)piperidin-3-yl)methanamine] came in with an IC50 of more than 1000 nM.

For the compound `NC1CCN(c2cc(-c3ccc(Cl)cc3)nc(-c3cccnc3)n2)CC1` [Example 64, 1-(6-(4-chlorophenyl)-2-(pyridin-3-yl)pyrimidin-4-yl)piperidin-4-amine], the 50% inhibitory concentration (IC50) fell in the range of 100 to 1000 nM.

Turning to `NCC1CCN(c2cc(-c3ccc(Cl)cc3)nc(-c3cccnc3)n2)CC1` [Example 65, (1-(6-(4-chlorophenyl)-2-(pyridin-3-yl)pyrimidin-4-yl)piperidin-4-yl)methanamine], the half-maximal inhibitory concentration (IC50) fell in the range of 100 to 1000 nM.
